Data from patent US20250263370A1 (Tay Therapeutics Limited, priority 2022, published 2025).
Read-outs that look alike come from different tables or passages of the source.

Assays:
BRD4 BD1 = BRD4 BD1 (Homo sapiens (Human), UniProt O60885); assay: NanoBRET bromodomain assay, NanoLuc-BRD4-BD1 fusion in HEK293 cells; format: cell-based; conditions: top concentration 10 μM
BRD4 BD2 = BRD4 BD2 (Homo sapiens (Human), UniProt O60885); assay: NanoBRET bromodomain assay, NanoLuc-BRD4-BD2 fusion in HEK293 cells; conditions: for IC50: NanoBRET, HEK293 cells, top concentration 10 μM; for Fold selectivity: IC50 for BRD4 BD1 divided by IC50 for BRD4 BD2, qualitative if an IC50 is at the upper limit;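 as to all read-outs here: tracer displacement BRET read in transfected cells after 2 h compound exposure at 37 °C, signal in milliBRET units corrected against no-tracer background wells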
Method: HEK293 cells were transfected using NanoLuc-BRD4-BD1 or NanoLuc-BRD4-BD2 fusion vectors and incubated at 37° C. in an atmosphere of 5% CO2 for 20-24 hours. The transfected cells were then dispensed into 96-well plates using 90 μl cell suspension per well containing 2×10^5 cells/mL in Opti-MEM and 1× final concentration of tracer. 90 μL per well of cell suspension without tracer was also dispensed into at least 3 wells as “No tracer control samples” for background correction. Serially diluted test compounds were prepared at 1000× concentration in DMSO and further diluted to 10× concentration in Opti-MEM. […] Plates were then incubated at 37° C. +5% 002 incubator for 2 hours. […] Donor emission (450 nm) and acceptor emission (610 nm) were measured using PHERAstar (BMG LabTech). For data analysis, the raw BRET ratio was generated and converted to milliBRET units with background correction using the formula: [(Acceptorsample/Donorsample−(Acceptorno tracer control/Donorno tracer control)]×1000. The mBU data was plotted as a function of compound concentration and IC50s for BRET assay were determined by nonlinear regression analysis of concentration response curves using the Collaborative Drug Discovery Vault software. The fold-selectivity was calculated by dividing the IC50 for BRD4 BD1 by the IC50 for BRD4 BD2.

Row | Structure (SMILES) | IC50 (BRD4 BD1) | IC50 (BRD4 BD2; BRD4 BD2 (IC50)) | Fold selectivity (BRD4 BD2) | IC50 (BRD4 BD2; read-out: BRD4 BD2 (IC50)) | BRD4 BD2 % Activity Remaining @ 10 uM (BRD4 BD2; 10 uM, (2) = second batch) | remaining activity at 10 µM (BRD4 BD2; HEK293, read-out: BRD4 BD2 % Activity Remaining @ 10 uM, 10 uM, (2) = second batch)
1 | CNC(=O)c1[nH]c(C(=O)N[C@H]2CC[C@H](O)CC2)cc1O[C@@H](C)c1ccnnc1 (single isomer, unassigned) [Example 91, N^5-(4-hydroxycyclohexyl)-N^2-methyl-3-(1-(pyridazin-4-yl)ethoxy)-1H-pyrrole-2,5-dicarboxamide] | ≥ 10 µM | > 10 µM | — (Fold ≥0 and ≤2) | – | – | –
2 | CNC(=O)c1[nH]c(C(=O)N[C@H]2CC[C@H](O)CC2)cc1O[C@@H](C)c1ccnnc1 (single isomer, unassigned) [Example 93, N^5-(4-hydroxycyclohexyl)-N^2-methyl-3-(1-(pyridazin-4-yl)ethoxy)-1H-pyrrole-2,5-dicarboxamide] | ≥ 10 µM | – | — (Fold ≥0 and ≤2) | > 10 µM | – | –
3 | CNC(=O)c1[nH]c(C(=O)N[C@H]2CC[C@H](O)CC2)cc1O[C@@H](C)c1ccnnc1 (single isomer, unassigned) [Example 94, N^5-(4-hydroxycyclohexyl)-N^2-methyl-3-(1-(pyridazin-4-yl)ethoxy)-1H-pyrrole-2,5-dicarboxamide] | ≥ 10 µM | – | — (Fold ≥0 and ≤2) | > 10 µM | – | –
4 | CNC(=O)c1[nH]c(-c2ncc(C)[nH]2)cc1O[C@@H](C)c1ccccc1 [23 (2)*] | ≥ 10 µM | > 10 µM | — (Fold ≥0 and ≤2) | – | 61% | –
5 | CCNC(=O)c1cc(OC(C)c2cccc(C#N)c2)c(C(=O)NC)[nH]1 (stereo not shown) [Example 4, 3-(1-(3-cyanophenyl)ethoxy)-N^5-ethyl-N^2-methyl-1H-pyrrole-2,5-dicarboxamide] | ≥ 10 µM | > 10 µM | — (Fold ≥0 and ≤2) | – | – | –
6 | CNC(=O)c1[nH]c(-c2ncc(C)[nH]2)cc1O[C@H](C)c1ccccc1 [Example 24, (R)-N-methyl-5-(5-methyl-1H-imidazol-2-yl)-3-(1-phenylethoxy)-1H-pyrrole-2-carboxamide] | ≥ 10 µM | 1 to 10 µM | – | – | – | 41%
7 | CNC(=O)c1[nH]c(C(=O)NCC(F)(F)F)cc1O[C@@H](C)c1ccccc1F [Example 57, (S)-3-(1-(2-fluorophenyl)ethoxy)-N^2-methyl-N^5-(2,2,2-trifluoroethyl)-1H-pyrrole-2,5-dicarboxamide] | ≥ 10 µM | 0.2 to 1 µM | X (Fold >2 and ≤50) | – | – | –
8 | CNC(=O)c1[nH]c(C(=O)NC(C)C)cc1O[C@@H](C)c1ccccc1F [Example 58, (S)-3-(1-(2-fluorophenyl)ethoxy)-N^5-isopropyl-N^2-methyl-1H-pyrrole-2,5-dicarboxamide] | ≥ 10 µM | 0.05 to 0.2 µM | XX (Fold >50 and ≤200) | – | – | –
9 | CNC(=O)c1[nH]c(C(=O)NCC(F)(F)F)cc1O[C@@H](C)c1ccc(Cl)cc1 [Example 60, (S)-3-(1-(4-chlorophenyl)ethoxy)-N^2-methyl-N^5-(2,2,2-trifluoroethyl)-1H-pyrrole-2,5-dicarboxamide] | ≥ 10 µM | 0.05 to 0.2 µM | XX (Fold >50 and ≤200) | – | – | –
10 | CNC(=O)c1[nH]c(-c2cc(C)nn2C)cc1O[C@@H](C)c1ccccc1 [Example 81, (S)-5-(1,3-dimethyl-1H-pyrazol-5-yl)-N-methyl-3-(1-phenylethoxy)-1H-pyrrole-2-carboxamide] | ≥ 10 µM | 0.05 to 0.2 µM | XX (Fold >50 and ≤200) | – | – | –
11 | CNC(=O)c1[nH]c(-c2cc(C)nn2C)cc1O[C@H](C)c1ccccc1 [Example 82, (R)-5-(1,3-dimethyl-1H-pyrazol-5-yl)-N-methyl-3-(1-phenylethoxy)-1H-pyrrole-2-carboxamide] | ≥ 10 µM | > 10 µM | — (Fold ≥0 and ≤2) | – | – | –
12 | CNC(=O)c1[nH]c(-c2cnn(C(F)(F)F)c2)cc1O[C@@H](C)c1ccccc1 [Example 83, (S)-N-methyl-3-(1-phenylethoxy)-5-(1-(trifluoromethyl)-1H-pyrazol-4-yl)-1H-pyrrole-2-carboxamide] | ≥ 10 µM | < 0.05 µM | XXX (Fold >200) | – | – | –
13 | CNC(=O)c1[nH]c(-c2ccccc2)cc1O[C@@H](C)c1ccccc1 [Example 84, (S)-N-methyl-5-phenyl-3-(1-phenylethoxy)-1H-pyrrole-2-carboxamide] | ≥ 10 µM | 1 to 10 µM | X (Fold >2 and ≤50) | – | – | –
14 | CNC(=O)c1[nH]c(-c2ccccc2F)cc1O[C@@H](C)c1ccccc1 [Example 85, (S)-5-(2-fluorophenyl)-N-methyl-3-(1-phenylethoxy)-1H-pyrrole-2-carboxamide] | ≥ 10 µM | 1 to 10 µM | X (Fold >2 and ≤50) | – | – | –
